Results on ten compounds are retold here after PMC12951562, “SH2scan: Mapping SH2 Domain-Ligand Binding Selectivity for Inhibitors and Degraders” (Journal of Medicinal Chemistry, 2026).

Where two headings read alike, the source gives them in different places. Non-standard residues stand in square brackets, D forms with d. Residues, ends and D or L forms follow the SMILES beside them. *: point of attachment. pY = N[C@@H](Cc1ccc(OP(=O)(O)O)cc1)C(=O)O; Caffeoyl = O=C(/C=C/c1ccc(O)c(O)c1)*

Holding throughout (assay): biochemical
What all share (assay type): binding

One test deals with T1, FER (Homo sapiens, UniProt P16591).
T1 construct: the DNA-tagged SH2 domain concentrations used in this study were <0.1 nM; made in house; host or cells: HEK293 (transient transfection; unpurified extract)
To be noted: for percent of DMSO vehicle control at 10 µM / remaining activity at 10 µM: read-out: percent of DMSO vehicle control.

For the next test, the target named is T2, HCK (Homo sapiens, UniProt P08631).
T2 construct: the DNA-tagged SH2 domain concentrations used in this study were <0.1 nM; made in house; host or cells: HEK293 (transient transfection, unpurified extract)
To be noted: for remaining activity at 10 µM: read-out: percent of DMSO vehicle control.

The target of the next test is T3, SLP76 (Homo sapiens, UniProt Q13094).
T3 construct: made in house; host or cells: HEK293 (transient transfection), unpurified extract
T3 sequence (Q13094 1-533): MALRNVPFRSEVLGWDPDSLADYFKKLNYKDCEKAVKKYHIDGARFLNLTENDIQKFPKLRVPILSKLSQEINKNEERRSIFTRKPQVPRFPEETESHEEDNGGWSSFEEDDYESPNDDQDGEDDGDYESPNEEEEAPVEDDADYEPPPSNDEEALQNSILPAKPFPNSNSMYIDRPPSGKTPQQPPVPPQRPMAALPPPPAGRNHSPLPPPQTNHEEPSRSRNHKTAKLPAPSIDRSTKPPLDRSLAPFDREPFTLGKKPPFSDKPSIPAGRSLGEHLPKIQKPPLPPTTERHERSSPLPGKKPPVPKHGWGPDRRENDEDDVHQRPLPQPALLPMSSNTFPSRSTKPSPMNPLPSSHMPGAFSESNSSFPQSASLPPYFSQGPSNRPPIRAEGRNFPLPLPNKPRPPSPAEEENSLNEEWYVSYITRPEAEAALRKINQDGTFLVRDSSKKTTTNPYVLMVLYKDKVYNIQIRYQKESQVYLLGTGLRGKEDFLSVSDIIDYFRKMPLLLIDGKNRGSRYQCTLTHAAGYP
The following applies: for remaining activity at 10 µM: read-out: percent of DMSO vehicle control.

The target of a further test is T4, SOCS6 (Homo sapiens, UniProt O14544).
T4 construct: made in house; host or cells: HEK293 (transient transfection), unpurified extract
T4 sequence (O14544 1-535): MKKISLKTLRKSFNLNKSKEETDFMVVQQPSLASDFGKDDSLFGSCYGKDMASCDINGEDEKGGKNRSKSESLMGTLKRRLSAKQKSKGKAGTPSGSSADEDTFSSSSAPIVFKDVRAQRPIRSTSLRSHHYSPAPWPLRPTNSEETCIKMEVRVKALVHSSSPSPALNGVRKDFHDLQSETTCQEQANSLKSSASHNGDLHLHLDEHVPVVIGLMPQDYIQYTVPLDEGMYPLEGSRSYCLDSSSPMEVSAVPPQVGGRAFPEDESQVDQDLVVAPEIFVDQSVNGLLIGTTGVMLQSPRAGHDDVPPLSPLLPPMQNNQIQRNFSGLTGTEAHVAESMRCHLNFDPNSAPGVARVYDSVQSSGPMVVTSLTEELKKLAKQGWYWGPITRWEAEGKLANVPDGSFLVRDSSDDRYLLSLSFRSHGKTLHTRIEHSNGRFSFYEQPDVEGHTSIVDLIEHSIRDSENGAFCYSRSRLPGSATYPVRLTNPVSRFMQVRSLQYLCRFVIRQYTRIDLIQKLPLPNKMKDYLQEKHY
To be noted: for remaining activity at 10 µM: read-out: percent of DMSO vehicle control.

The target in a further test is T5, CBLB (Homo sapiens, UniProt Q13191).
T5 construct: the DNA-tagged SH2 domain concentrations used in this study were <0.1 nM; made in house; host or cells: HEK293 (transient transfection; unpurified extract)
The following applies: for percent of DMSO vehicle control: primary screen, 10 μM.

Another test concerns the target T6, TNS3 (Homo sapiens, UniProt Q68CZ2).
T6 construct: made in house; host or cells: HEK293 (transient transfection), unpurified extract
T6 sequence (Q68CZ2 1-1445): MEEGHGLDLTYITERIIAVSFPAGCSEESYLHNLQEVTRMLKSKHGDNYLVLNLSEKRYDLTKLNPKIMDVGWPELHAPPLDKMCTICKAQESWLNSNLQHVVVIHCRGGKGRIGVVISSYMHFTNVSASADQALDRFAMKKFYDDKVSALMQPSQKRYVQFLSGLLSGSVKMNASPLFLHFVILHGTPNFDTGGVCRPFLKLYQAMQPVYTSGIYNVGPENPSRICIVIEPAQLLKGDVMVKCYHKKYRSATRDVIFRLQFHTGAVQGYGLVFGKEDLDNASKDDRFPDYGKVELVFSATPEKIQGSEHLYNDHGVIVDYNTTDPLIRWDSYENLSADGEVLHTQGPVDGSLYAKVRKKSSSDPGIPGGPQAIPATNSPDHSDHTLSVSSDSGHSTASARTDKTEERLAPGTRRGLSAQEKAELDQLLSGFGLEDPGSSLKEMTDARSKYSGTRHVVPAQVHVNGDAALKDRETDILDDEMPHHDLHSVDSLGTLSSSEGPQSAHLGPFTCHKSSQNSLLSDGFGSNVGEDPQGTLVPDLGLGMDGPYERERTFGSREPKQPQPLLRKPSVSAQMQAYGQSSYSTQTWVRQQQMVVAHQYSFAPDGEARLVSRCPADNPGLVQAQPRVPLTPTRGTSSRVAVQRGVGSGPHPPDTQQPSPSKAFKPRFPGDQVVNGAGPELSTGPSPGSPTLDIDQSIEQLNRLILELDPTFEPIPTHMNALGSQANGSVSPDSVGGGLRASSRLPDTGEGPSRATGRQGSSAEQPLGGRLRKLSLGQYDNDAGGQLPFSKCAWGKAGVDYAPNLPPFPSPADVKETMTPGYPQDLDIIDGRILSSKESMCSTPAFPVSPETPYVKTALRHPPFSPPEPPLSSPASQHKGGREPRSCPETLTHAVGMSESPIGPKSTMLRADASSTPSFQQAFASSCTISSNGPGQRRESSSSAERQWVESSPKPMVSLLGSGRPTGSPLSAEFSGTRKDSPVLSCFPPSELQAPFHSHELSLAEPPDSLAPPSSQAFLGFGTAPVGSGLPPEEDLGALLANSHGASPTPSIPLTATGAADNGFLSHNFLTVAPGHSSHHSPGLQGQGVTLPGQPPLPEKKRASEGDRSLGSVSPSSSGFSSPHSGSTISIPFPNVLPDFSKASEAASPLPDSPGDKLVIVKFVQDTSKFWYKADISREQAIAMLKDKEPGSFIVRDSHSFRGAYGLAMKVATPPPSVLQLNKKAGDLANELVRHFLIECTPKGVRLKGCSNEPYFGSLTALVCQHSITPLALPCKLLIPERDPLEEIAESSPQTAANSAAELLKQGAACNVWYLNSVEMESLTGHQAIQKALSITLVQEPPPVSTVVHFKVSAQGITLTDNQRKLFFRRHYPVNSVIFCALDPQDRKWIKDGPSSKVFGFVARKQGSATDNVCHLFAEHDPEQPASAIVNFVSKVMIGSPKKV
The following applies: for remaining activity at 10 µM: read-out: percent of DMSO vehicle control.

T1 sequence (P16591 460-550 limits assumed): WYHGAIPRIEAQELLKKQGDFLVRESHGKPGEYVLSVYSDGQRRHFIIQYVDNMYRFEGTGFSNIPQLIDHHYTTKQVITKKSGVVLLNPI
T2 sequence (P08631 144-241 limits assumed): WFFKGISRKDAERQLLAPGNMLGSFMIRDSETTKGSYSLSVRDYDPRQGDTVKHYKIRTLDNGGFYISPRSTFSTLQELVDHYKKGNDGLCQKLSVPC
T5 sequence (Q13191 241-343 limits assumed): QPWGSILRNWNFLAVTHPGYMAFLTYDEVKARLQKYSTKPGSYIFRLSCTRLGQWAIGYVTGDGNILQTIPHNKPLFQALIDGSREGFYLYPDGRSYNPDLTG

For `NC(=O)CC[C@H](NC(=O)[C@@H]1CC[C@@H]2CCN(C(=O)CCCCCC#Cc3cccc4c3CN(C3CCC(=O)NC3=O)C4=O)C[C@H](NC(=O)c3cc4cc(C(F)(F)P(=O)(O)O)ccc4[nH]3)C(=O)N21)C(=O)NC(c1ccccc1)c1ccccc1` (stereo partly shown) [SD-36], the percent of DMSO vehicle control at 10 µM at FER amounted to 74.4 ± 18.6%. The remaining activity at 10 µM on HCK is 56.4 ± 3.2%; on SLP76 it was 66.5 ± 0.8%; on SOCS6, 57.2 ± 3.4%; at TNS3, 57.6 ± 6%. Also, the “percent of DMSO vehicle control” value on CBLB was determined as 60.9±5.8%.

`CC(C)(C)[C@H](NC(=O)/C=C/c1ccc(OP(=O)(O)O)cc1)C(=O)N1CCC[C@H]1C(=O)N(c1ccccc1)c1ccc(I)cc1` [STAT6-IN-3]: at FER (dose-response, read-out: KD), the Kd was determined as 8000 ± 8700 nM. In addition, the remaining activity at 10 µM at FER (primary screen, 10 μM) came to 10.7 ± 34%; at HCK (primary screen, 10 μM) it was 77.4 ± 4.3%; at SLP76 (primary screen, 10 μM), 93.6 ± 30.3%; at SOCS6 (primary screen, 10 μM), 90.2 ± 12.1%; on TNS3 (primary screen, 10 μM), 55.6 ± 12.1%. Also, the “percent of DMSO vehicle control” value on CBLB was determined as 69.0±7.6%.

`CC[C@H](C)[C@H](NC(=O)[C@H](CCC(=O)O)NC(=O)[C@H](CCC(=O)O)NC(=O)[C@H](Cc1ccc(OP(=O)(O)O)cc1)NC(C)=O)C(=O)N[C@@H](CCC(=O)O)C(N)=O` [Ac-pYEEIE-NH2] (Ac-[pY]EEIE-NH2): the “percent of DMSO vehicle control” value was 37.4% on FER (primary screen, 10 μM); 82.2% at HCK (primary screen, 10 μM); 42.0±2.1% at SLP76 (primary screen, 10 μM); 95.6±6.2% on SOCS6 (primary screen, 10 μM); 116.1% on CBLB; 83.2±4.0% at TNS3 (primary screen, 10 μM).

Turning to `O=C(CCl)Nc1cccc(CNC(=O)[C@H](Cc2ccc(OP(=O)(O)O)cc2)NC(=O)Cc2ccc(F)cc2)c1` [MN551], the remaining activity at 10 µM was 1.1 ± 0.2% on FER (primary screen, 10 μM); 92.7% on HCK (primary screen, 10 μM); 116% at SLP76 (primary screen, 10 μM); 65.2 ± 0.1% on SOCS6 (primary screen, 10 μM); 48.5 ± 7.3% at TNS3 (primary screen, 10 μM). Moreover, the “percent of DMSO vehicle control” value at CBLB is on record as 86.8±3.2%.

As for `CC(=O)N[C@@H](Cc1ccc(CP(=O)(O)O)cc1)C(=O)NC1(C(=O)N[C@@H](CC(N)=O)C(=O)NCCCc2c(O)ccc3ccccc23)CCCCC1` [CGP78850], the percent of DMSO vehicle control at 10 µM on FER was 136 ± 7.5%. Besides, the remaining activity at 10 µM at HCK amounted to 60 ± 12.1%; on SLP76 it was 44.1 ± 5.3%; at SOCS6, 63.3 ± 5.3%; at TNS3 it was 9.8 ± 0.1%. In addition, the “percent of DMSO vehicle control” value at CBLB came out at 122.1±4.2%. On TNS3, this compound came in with a Kd of 620 nM.

On to `CC(=O)N1CC[C@H]2CC[C@@H](C(=O)N[C@@H](CCC(N)=O)C(=O)NC(c3ccccc3)c3ccccc3)N2C(=O)[C@@H](NC(=O)c2cc3cc(C(F)(F)P(=O)(O)O)ccc3[nH]2)C1` [SI-109], for which the percent of DMSO vehicle control at 10 µM at FER was determined as 107%. In addition, the remaining activity at 10 µM at HCK is 91.9%; on SLP76 it was 61.9%; at SOCS6, 91.9 ± 7.4%; on TNS3, 128%. For the same compound, the “percent of DMSO vehicle control” value at CBLB is given as 128.3%.

On to `CC[C@H](C)[C@H](NC(=O)[C@H](CCC(=O)O)NC(=O)[C@H](CCC(=O)O)NC(=O)[C@H](Cc1ccc(OP(=O)(O)O)cc1)NC(=O)/C=C/c1ccc(O)c(O)c1)C(=O)N[C@@H](CCC(=O)O)C(=O)O` [Caffeic acid-pYEEIE] (Caffeoyl-[pY]EEIE-OH), for which the Kd was found to be 62 ± 86 nM on FER; 6 ± 0.97 nM at HCK; 1900 ± 240 nM at SOCS6; 5700 ± 1400 nM at CBLB; 1000 ± 210 nM on TNS3. For the same compound, the percent of DMSO vehicle control at 10 µM at FER amounted to 0.8 ± 0.8%. Further, the remaining activity at 10 µM turned out to be 0% at HCK, 99.6 ± 4.7% at SLP76, 8.2 ± 0.1% on SOCS6 and 1.8 ± 0.6% on TNS3. Also, the “percent of DMSO vehicle control” value at CBLB is 32.7±22.6%.

As to `O=C(COc1ccc2cc(C(=O)Nc3ccccc3)ccc2c1)NCc1ccc(OP(=O)(O)O)c(OP(=O)(O)O)c1` [Stafib-1], the equilibrium dissociation constant (Kd) on FER (dose-response, read-out: KD) was determined as 1900 nM. The remaining activity at 10 µM at FER (primary screen, 10 μM) worked out at 10.8%; at HCK (primary screen, 10 μM), 77 ± 19.3%; at SLP76 (primary screen, 10 μM) it was 97.5 ± 31%; on SOCS6 (primary screen, 10 μM) it was 96.9 ± 12%; at TNS3 (primary screen, 10 μM), 77.8 ± 9%. Also, at CBLB, the “percent of DMSO vehicle control” value was 78.9±15.9%.

At TNS3, `CC[C@H](C)[C@H](NC(=O)[C@H](CO)NC(=O)[C@H](CC(C)C)NC(=O)[C@H](CCCNC(=N)N)NC(=O)[C@H](CO)NC(=O)[C@H](CS)NC(C)=O)C(=O)N[C@@H](Cc1ccc(OP(=O)(O)O)cc1)C(=O)N[C@@H](CC(=O)O)C(=O)N[C@@H](CC(N)=O)C(=O)N[C@H](C(=O)N1CCC[C@H]1C(=O)NCC(N)=O)C(C)C` [Ac-CSRLSIpYDNVPG-NH2] (Ac-CSRLSI[pY]DNVPG-NH2) had a Kd of 120 ± 28.9 nM.

`C/C(=C\C(=O)N[C@H](C(=O)N1CCC[C@H]1C(=O)N(c1ccccc1)c1ccc(I)cc1)C(C)(C)C)c1ccc(OP(=O)(O)O)cc1` [STAT6-IN-1]: the Kd on FER (dose-response, read-out: KD) was determined as 1400 ± 71 nM. Besides, the remaining activity at 10 µM at FER (primary screen, 10 μM) is 8.5 ± 0.1%; on HCK (primary screen, 10 μM) it was 48.8 ± 5.2%; on SLP76 (primary screen, 10 μM), 50.8 ± 0.4%; on SOCS6 (primary screen, 10 μM), 44.1 ± 2.1%; at TNS3 (primary screen, 10 μM), 57 ± 10.1%. In addition, at CBLB, the “percent of DMSO vehicle control” value stood at 36.0±0.8%.
